Consider 14 compounds from patent US10654832B2, “3-(benzoimidazol-2-YL)-indazole inhibitors of the Wnt signaling pathway and therapeutic uses thereof” (Samumed, LLC, priority 2013, dated 2020).

The assay concerns Wnt activity (wnt-responsive SP5 promoter luciferase reporter in SW480 cells). The experiment in a line: Wnt activity reporter assay (SP5 promoter-firefly luciferase in SW480 cells). The note with it: Homo sapiens; SW480 colon cancer cells with SP5 promoter luciferase reporter; 24 h after compound addition; half-log dilutions, three micromolar top concentration; normalized to DMSO; read-out: Wnt inhibition. Format: cell-based. The method, boiled down: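 SW480 cells (APC-mutant) stably carried a lentiviral SP5-promoter (eight TCF/LEF sites) firefly luciferase reporter. Signals were normalized to DMSO-only cells to derive IC50.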
Background: A reporter such as luciferase makes a cellular process visible.
As to `CCCCC(=O)Nc1cncc(-c2ccc3[nH]nc(-c4nc5ccccc5[nH]4)c3c2)c1` [Compound 234, N-(5-(3-(1H-Benzo[d]imidazol-2-yl)-1H-indazol-5-yl)pyridin-3-yl) pentanamide], the IC50 is 123 nM. The result for `O=C(Nc1cncc(-c2ccc3[nH]nc(-c4nc5ccccc5[nH]4)c3c2)c1)C1CC1` [Compound 235, N-(5-(3-(1H-Benzo[d]imidazol-2-yl)-1H-indazol-5-yl)pyridin-3-yl) cyclopropanecarboxamide] reads 25 nM; that for `O=C(Nc1cncc(-c2ccc3[nH]nc(-c4nc5ccccc5[nH]4)c3c2)c1)C1CCCCC1` [Compound 238, N-(5-(3-(1H-Benzo[d]imidazol-2-yl)-1H-indazol-5-yl)pyridin-3-yl) cyclohexanecarboxamide], 147 nM.

Regarding `c1ccc(CNCc2cncc(-c3ccc4[nH]nc(-c5nc6ccccc6[nH]5)c4c3)c2)cc1` [Compound 239, 1-(5-(3-(1H-Benzo[d]imidazol-2-yl)-1H-indazol-5-yl)pyridin-3-yl)-N-benzylmethanamine], the IC50 is 372 nM. As for `CCNCc1cncc(-c2ccc3[nH]nc(-c4nc5c(-c6ccsc6)cccc5[nH]4)c3c2)c1` [Compound 246, N-((5-(3-(4-(Thiophen-3-yl)-1H-benzo[d]imidazol-2-yl)-1H-indazol-5-yl)pyridin-3-yl)methyl)ethanamine], the figure is 14 nM; as for `CC(C)C(=O)Nc1cncc(-c2ccc3[nH]nc(-c4nc5c(-c6ccsc6)cccc5[nH]4)c3c2)c1` [Compound 249, N-(5-(3-(4-(Thiophen-3-yl)-1H-benzo[d]imidazol-2-yl)-1H-indazol-5-yl)pyridin-3-yl)isobutyramide], 13 nM; as for `CN(C)Cc1cncc(-c2ccc3[nH]nc(-c4nc5c(-c6ccsc6)cccc5[nH]4)c3c2)c1` [Compound 253, N,N-Dimethyl-1-(5-(3-(4-(thiophen-3-yl)-1H-benzo[d]imidazol-2-yl)-1H-indazol-5-yl)pyridin-3-yl)methanamine], 7 nM.

In the case of `c1cc(-c2ccsc2)c2nc(-c3n[nH]c4ccc(-c5cncc(CN6CCCC6)c5)cc34)[nH]c2c1` [Compound 254, 5-(5-(Pyrrolidin-1-ylmethyl)pyridin-3-yl)-3-(4-(thiophen-3-yl)-1H-benzo[d]imidazol-2-yl)-1H-indazole], the IC50 worked out at 2 nM. The result for `Nc1cncc(-c2ccc3[nH]nc(-c4nc5c(-c6ccoc6)cccc5[nH]4)c3c2)c1` [Compound 267, 5-(3-(4-(Furan-3-yl)-1H-benzo[d]imidazol-2-yl)-1H-indazol-5-yl) pyridin-3-amine] reads not below 4150 nM; that for `CC(C)(C)C(=O)Nc1cncc(-c2ccc3[nH]nc(-c4nc5c(-c6ccoc6)cccc5[nH]4)c3c2)c1` [Compound 272, N-(5-(3-(4-(Furan-3-yl)-1H-benzo[d]imidazol-2-yl)-1H-indazol-5-yl)pyridin-3-yl)pivalamide], 159 nM; that for `CC(C)Nc1cncc(-c2ccc3[nH]nc(-c4nc5c(-c6ccoc6)cccc5[nH]4)c3c2)c1` [Compound 276, 5-(3-(4-(Furan-3-yl)-1H-benzo[d]imidazol-2-yl)-1H-indazol-5-yl)-N-isopropylpyridin-3-amine], 16 nM.

Regarding `c1cc(-c2ccoc2)c2nc(-c3n[nH]c4ccc(-c5cncc(CN6CCCCC6)c5)cc34)[nH]c2c1` [Compound 279, 3-(4-(Furan-3-yl)-1H-benzo[d]imidazol-2-yl)-5-(5-(piperidin-1-ylmethyl)pyridin-3-yl)-1H-indazole], the IC50 was determined as 418 nM.

Consider `CCCC(=O)Nc1cncc(-c2ccc3[nH]nc(-c4nc5c(-c6ccoc6)cccc5[nH]4)c3c2)c1` [Compound 281, N-(5-(3-(4-(Furan-3-yl)-1H-benzo[d]imidazol-2-yl)-1H-indazol-5-yl)pyridin-3-yl)butyramide], for which the IC50 worked out at 25 nM. As for `O=C(Nc1cncc(-c2ccc3[nH]nc(-c4nc5c(-c6ccoc6)cccc5[nH]4)c3c2)c1)C1CC1` [Compound 283, N-(5-(3-(4-(Furan-3-yl)-1H-benzo[d]imidazol-2-yl)-1H-indazol-5-yl)pyridin-3-yl)cyclopropanecarboxamide], the figure is 57 nM.
